Results as given in patent US8138191B2, “Inhibitor compounds and cancer treatment methods” (Critical Outcome Technologies Inc., priority 2007, dated 2012).
Where two headings read alike, the source gives them in different places.

Assays:
[1] = tested on: DMS153; test: in vitro IC50 against cancer cell lines, DMS153; format: cell-based; details: Homo sapiens, DMS-153, 72 h; DMS153, SCLC, 3 days
Protocol: (§1) Briefly, cells were plated in plastic tissue culture plates and grown under standard conditions for each cell line, in carbon dioxide/oxygen atmosphere in plastic tissue culture plates, in the presence of COTI-2 or COTI-219 compounds at 35° C. for 3 days. Control cultures were treated with vehicle minus compound. Cells were counted after 3 days in culture and at a cell density of no more than 80%. The following cell lines, obtained from the National Cancer Institute, were tested: human SCLC cell lines DMS153, DMS114, SHP77; human NSCLC cell lines H226, A460, A560; human breast cancer cell lines T47D, MCF7; human colon cancer cell line HT29; and, human Leukemia cell lines K562, HL60.

[2] = tested on: SHP-77 human SCLC cell line tumor xenografts; test: Nude mouse model of human SCLC, SHP-77 xenografts; format: in vivo; details: IP on alternate days from Day 3, 31 days
Protocol: The nude mouse model of human SCLC was used to evaluate the in vivo efficacy of compounds of the present invention in comparison with several known chemotherapeutic agents. Nude mice were obtained form the National Cancer Institute and the SHP-77 human SCLC cell line was chosen for metastatic tumor xenografts. The control group consisted of 10 animals, each of which were administered bilateral thigh injections of a prescribed volume of tumor cells. There were 6 treatment groups, each containing 5 animals: COTI-2, COTI-4, COTI-219, Taxotere® (docetaxel), Cisplatin® (cis-diamminedichloroplatinum) and Tarceva® (erlotinib) The therapeutic agent was administered by intraperitoneal (IP) injection on alternate days beginning on Day 3 post tumor cell injection. Each animal in a treatment group was administered bilateral thigh injections with the same prescribed volume of tumor cells as the control animals. Treatment continued for 31 days, following which the animals were euthanized and tissues were collected for subsequent analysis.

[3] = tested on: SF-295; test: IC50 human glioma/astrocytoma cell lines (alamar Blue), SF-295
Protocol: Cell lines were obtained from the Human Tissue Culture Collection (ATCC), grown and maintained under ATCC-specified conditions, and tested to ensure viability and lack of contaminating mycoplasma and common viruses. […] A viability stain (alamar Blue) was added to cells after 4-7 days of drug exposure (approximately 4 doublings of control cells; maximum cell density in wells approximately 80%), and assayed for total cellular metabolic activity (a function of population density of live cells) by absorbance.

[4] = tested on: Standard lab mice; test: Escalating dose acute toxicity study in mice; details: 4, 8, 16 mg/kg alternate day IP, 28 days
Text: Mice were given alternate day IP injections for 28 days. […] Blood and tissue samples were harvested for histopathology.

[5] = tested on: SHP77; test: Resistance testing over 5 generations, SHP77; format: cell-based, human; details: SHP77, 5 generations
Protocol: (§2) In order to evaluate the induction of resistance in vitro, compounds according to the invention were tested in head to head comparisons against conventional therapeutic agents Cisplatin® and Taxotere®. The compound designated COTI-4 (which is the subject of Applicant's co-pending U.S. provisional patent application entitled “Composition and Method for Treatment” filed Dec. 26, 2007) was also tested. The structure for COTI-4 is:
(§3) IC50 values were obtained using methods known to persons skilled in the art with two different human SCLC cell lines (DMS153 and SHP77) obtained from the National Cancer Institute. […] The procedure was repeated for a total of 5 generations. Emerging resistance was identified by increasing IC50 values in successive generations.

[6] = tested on: COLO-205; test: Tumor cell proliferation, single agents and combinations, COLO-205; format: cell-based, human; details: Homo sapiens
Protocol: The 3 cell lines were treated as follows:
Day 1: Cells were plated in 96-well flat bottom plates (VWR, Mississauga, ON, Canada) and allowed to adhere overnight.
All treated and control cells were, therefore, exposed to a 1% DMSO concentration plus the desired concentration of COTI-2.
(§4) The CI, a numerical value calculated as described in equation A, also provides a quantitative measure of the extent of drug interaction. A CI of less than, equal to, and more than 1 indicates synergy, additivity, and antagonism, respectively. CI=(CAx/ICx,A)+(CB,x/ICx,B) Equation A: Where CA,x and CB,x, are the concentrations of drug A and drug B used in combination to achieve x % drug effect. ICx,A and ICx,B are the concentrations for single agents to achieve the same effect.

[7] = tested on: DMS153; test: Resistance testing over 5 generations, DMS153; format: cell-based, human; details: DMS153, 5 generations
Protocol: as §2, §3

[8] = tested on: H1975; test: CellTiter-Blue growth inhibition, single agents and combinations, H1975; format: cell-based; details: Homo sapiens, read-out: Mean IC50, single agent
Protocol: The stock concentration was further diluted to 1 mM and added to a drug plate. […] Following dilution, 2 μl of test agent was transferred to the corresponding wells of a cell-containing 96-well plate with 198 μl of growth media. Tarceva® (erlotinib) was supplied by LC Labs (Woburn, Mass.).
Viable cell numbers were quantified by the CellTiter-Blue® cell viability assay, which measures the conversion of the indicator dye (resazurin) to resorufin, an indicator of cell viability. Experiments were repeated at least twice with the same concentrations to determine growth inhibitory activity.
as §4

[9] = tested on: SHP77; test: in vitro IC50 against cancer cell lines, SHP77; format: cell-based; details: Homo sapiens, 72 h; SHP77, SCLC, 3 days
Protocol: as §1

[10] = tested on: PI3K activity in DMS114 cells; test: PI3-K activity (PIP3 detection, Echelon kit), DMS114; format: cell-based, human; details: DMS114, 250 nM COTI-2 alone, 20 minutes
Text: As a negative control, an equivalent volume of DMSO was utilized. […] To measure PI3-K activity, a commercial kit was purchased from Echelon. Following the procedures recommended by the manufacturer, membrane lipids were extracted in several steps and the resulting PIP3 was immobilized to nitrocellulose and measured by its interaction with a PH-domain containing protein and HRP-conjugated antibody supplied with the kit. As an additional control in these experiments, the specific PI3-K inhibitor, LY294002 was used to inhibit PI3-K and thus stop PIP3 production.

[11] = tested on: HL60; test: in vitro IC50 against cancer cell lines, HL60; format: cell-based; details: Homo sapiens, HL-60, 72 h; HL60, Leukemia, 3 days
Protocol: as §1

Row | Compound | IC50 [1] [µM] | average number of tumors per injection site [2] | mean tumor volume [2] | IC50 [3] [µM] | acute toxicity / adverse effects [4] | weight loss [4] | emerging resistance: ratio of IC50 to IC50 of parental generation [5] | IC50 ([6]; COLO 205, read-out: Mean IC50, single agent) [µM] | emerging resistance: ratio of IC50 to IC50 of parental generation [7] | IC50 ([8]; NCI-H1975, 72 h) [µM] | IC50 [9] [µM] | increase in PI3K activity (PIP3 levels) [10] | IC50 [11] [µM] | IC50 ([6]; COLO-205, Colon, KRAS - WT, read-out: Mean IC50, single agent) [µM] | IC50 ([8]; NCI-H1975, H1975, NSCLC, EGFR - MUT, 72 h) [µM]
1 | S=C(N/N=C1/CCCc2cccnc21)N1CCN(c2ccccn2)CC1 [COTI-2] | 0.073 | 0.28 | 9.9 mm^3 | 0.184 | No evidence of acute toxicity | None of the drugs produced any weight loss | less than 1 | 0.0047 | less than 1 | 0.01 | 0.156 | approximately 25% | 0.236 |  | 
2 | CN1CCN(C(=S)NN=C2c3ncccc3-c3cccnc32)CC1 [COTI-219] | 0.233 | 0.38 | 53+/−28 mm^3 | 2.39 | No evidence of acute toxicity | None of the drugs produced any weight loss | little to no emerging resistance |  | little to no emerging resistance |  | 0.787 |  | 0.374 | 0.0043 | 0.1
